Assay [1] concerns the target rat striatal A2a receptors (Rattus norvegicus, UniProt P30543). As to the kind of experiment: Radioligand binding, [3H]CGS 21680, rat striatal A2a receptors. Details: Rat cerebral cortical membranes and striatal membranes were prepared; from tissue; host or cells: rat striatal membranes. Particulars: for potency or selectivity in binding, in words: rat A1 and A2 binding; for A2-selectivity: rat brain binding, this study.
Description: (§1) The 1,3,7-trialkyl-8-substituted xanthine compounds of the present invention were tested in a radioligand binding assay for affinity at adenosine receptors in rat brain membranes.
The stock solutions were diluted with DMSO to a concentration of ≥0.1 mM prior to adding to the aqueous medium. The final concentration of DMSO in the assay medium was generally 2%.
Test drugs were dissolved in DMSO and added in 10 μl aliquots, resulting in a final DMSO concentration of 2%. Non-specific binding was defined using 20 μM 2-chloroadenosine. Filtration was carried out using a Brandel Cell Harvester, as above, using Tris HCl/MgCl2 as the washing buffer.
(§2) At least six different concentrations spanning three orders of magnitude, adjusted appropriately for the IC50 of each compound, were used.

The target in assay [2] is T1, rat A1 cortical receptors (Rattus norvegicus, UniProt P25099).
T1 construct: Rat cerebral cortical membranes and striatal membranes were prepared; from tissue; host or cells: rat cerebral cortex membranes
T1 sequence (P25099 1-326): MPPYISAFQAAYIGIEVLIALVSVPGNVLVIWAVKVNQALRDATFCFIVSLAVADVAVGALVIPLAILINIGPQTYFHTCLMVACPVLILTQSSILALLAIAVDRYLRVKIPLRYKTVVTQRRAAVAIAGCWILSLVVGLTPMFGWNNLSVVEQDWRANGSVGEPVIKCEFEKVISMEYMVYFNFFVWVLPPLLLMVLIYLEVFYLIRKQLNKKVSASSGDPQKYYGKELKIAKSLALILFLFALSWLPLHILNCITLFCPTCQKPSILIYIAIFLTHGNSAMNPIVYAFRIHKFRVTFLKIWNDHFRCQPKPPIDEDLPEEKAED
Description: Radioligand binding, [3H]N6-phenylisopropyladenosine ([3H]PIA), rat cortical A1 receptors. Particulars: for Ki: vs [3H]PIA (1 nM), read-out: Ki (A1).
Description: as §1
The final concentration of DMSO in the assay medium was generally 2%.
Membranes (~100 μg protein per tube) were incubated for 1.5 h at 37° C. in a total volume of 0.5 ml of 50 mM Tris hydrochloride, at pH 7.4. Test drugs were dissolved in DMSO and added in 10 μl aliquots, resulting in a final DMSO concentration of 2%. Bound and free radioligand were separated by addition of 3 ml of a buffer containing 50 mM Tris hydrochloride, pH 7.4, at 5° C., followed by vacuum filtration using a Brandel Cell Harvester (Brandel, Gaithersburg, Md.) and a Whatman GF/B glass fiber filter with additional washes totaling 9 ml of buffer. Non-specific binding was determined with 10 μM 2-chloroadenosine.
as §2

Setting [3] is: Table III, vs [3H]CGS21680 (5 nM), read-out: Ki (A2).
The mark [4] stands for this setting: Table I, vs [3H]CGS21680 (5 nM), rat striatal A2 receptors, read-out: Ki (A2a).
Setting [5] is: vs [3H]CGS 21680, read-out: Ki value / affinity at A2 receptors.

“And” between values parts separate entries of the source, which are not always exact repeats. Equal values may be shown once. Read-outs that look alike come from different tables or passages of the source.

rat striatal A2a receptors, sequence (P30543 whole entry): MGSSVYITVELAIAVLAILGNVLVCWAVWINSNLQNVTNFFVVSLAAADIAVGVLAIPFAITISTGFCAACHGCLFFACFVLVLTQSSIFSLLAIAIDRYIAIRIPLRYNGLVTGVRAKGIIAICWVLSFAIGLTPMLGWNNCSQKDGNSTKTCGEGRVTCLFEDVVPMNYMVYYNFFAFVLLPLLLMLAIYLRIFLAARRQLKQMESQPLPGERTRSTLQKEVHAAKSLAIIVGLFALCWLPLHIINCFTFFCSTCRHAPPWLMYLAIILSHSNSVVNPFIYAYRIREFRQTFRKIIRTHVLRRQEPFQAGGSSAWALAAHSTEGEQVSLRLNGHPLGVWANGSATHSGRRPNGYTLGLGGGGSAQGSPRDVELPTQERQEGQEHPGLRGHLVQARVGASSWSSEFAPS

For the compound `Cn1c(=O)c2c(nc(/C=C/C(=O)Nc3ccccc3)n2C)n(C)c1=O` [C(O)NH-phenyl(Rβ = H)], the A1/A2 ratio in assay [1] (Table III) came out at 19.8. Also, the Ki in assay [1] (setting [3]) is 2530 nM; in assay [2] (Table III) it was 50000 nM.
Taken in the same sequence, the figures for `Cn1c(=O)c2c(nc(/C=C/C(=O)OC(C)(C)C)n2C)n(C)c1=O` [C(O)OC(CH3)3 (Rβ = H), 8-(trans-2-tert-Butyloxycarbonylvinyl)-1,3,7-trimethylxanthine] were 31, 590 nM and 18000 nM.
The like results for `Cn1c(=O)c2c(nc(/C=C/C(=O)O)n2C)n(C)c1=O` [C(O)OH(Rβ = H), 8-(trans-2-Carboxyvinyl)-1,3,7-trimethylxanthine] were, in that order, greater than 3, 30000 nM and greater than 100000 nM.
As for `Cn1c(=O)c2[nH]c(/C=C/c3ccccc3)nc2n(C)c1=O` [Compound 15a], the A1/A2a ratio in assay [1] (Table I, ratio of Ki values) is recorded as 2.3. For the same compound, the Ki worked out at 291 ± 40 nM in assay [1] (setting [4]) and 654 ± 170 nM in assay [2] (Table I, rat A1 receptors). For the same compound, the “potency or selectivity in binding, in words” value (“potency or selectivity” below) in assay [1] is on record as “non-selective”.
With `Cn1c(=O)c2c(nc(/C=C/c3ccccc3)n2C)n(C)c1=O` [Compound 15b], the Ki in assay [2] (Table I, rat A1 receptors) was found to be 3890 nM.
Take `Cn1c(=O)c2[nH]c(/C(F)=C/c3ccccc3)nc2n(C)c1=O` [Compound 16]: the A1/A2a ratio in assay [1] (Table I, ratio of Ki values) is given as 1.4. The Ki was 2110 nM in assay [1] (setting [4]) and 2190 nM in assay [2] (Table I, rat A1 receptors).
The like results for `COc1ccccc1/C=C/c1nc2c([nH]1)c(=O)n(C)c(=O)n2C` [Compound 17a, 1,3-Dimethyl-8-(2-methoxystyryl)xanthine] were, in that order, 2.7, 645 ± 144 nM and 1730 nM.
Taken in the same sequence, the figures for `COc1ccccc1/C=C/c1nc2c(c(=O)n(C)c(=O)n2C)n1C` [Compound 17b, 1,3,7-Trimethyl-8-(2-methoxystyryl)xanthine] were 18, 267 ± 84 nM and 4760 nM.
Regarding `Cn1c(=O)c2[nH]c(/C=C/c3cccc(O)c3)nc2n(C)c1=O` [Compound 18], the A1/A2a ratio in assay [1] (Table I, ratio of Ki values) came to 2.4. The Ki amounted to 303 ± 55 nM in assay [1] (setting [4]) and 702 ± 40 nM in assay [2] (Table I, rat A1 receptors). In addition, in assay [1], the “potency or selectivity” value was “equipotent with the methoxy compound, 19b, at A2 -receptors and more potent at A1 -receptors”.
For the compound `COc1cccc(/C=C/c2nc3c([nH]2)c(=O)n(C)c(=O)n3C)c1` [Compound 19a], the A1/A2a ratio in assay [1] (Table I, ratio of Ki values) is reported as 4.8. The Ki in assay [1] (setting [4]) amounted to 378 ± 155 nM; in assay [2] (Table I, rat A1 receptors), 1830 nM.
On to `COc1cccc(/C=C/c2nc3c(c(=O)n(C)c(=O)n3C)n2C)c1` [Compound 19b], for which the A1/A2a ratio in assay [1] (Table I, ratio of Ki values) is on record as 64. Besides, the Ki in assay [1] (setting [4]) stood at 84.8 ± 24 nM; in assay [1] (setting [5]), 85 nM; in assay [2] (Table I, rat A1 receptors), 5430 nM.
For the compound `Cn1c(=O)c2[nH]c(/C=C/c3cccc(C(F)(F)F)c3)nc2n(C)c1=O` [Compound 20a, 1,3-Dimethyl-8-(3-trifluoromethylstyryl)xanthine], in assay [1] (Table I, ratio of Ki values), the A1/A2a ratio amounted to 2.6. In addition, the Ki in assay [1] (setting [4]) came to 343 ± 58 nM; in assay [2] (Table I, rat A1 receptors), 881 ± 251 nM.
Consider `Cn1c(=O)c2c(nc(/C=C/c3cccc(C(F)(F)F)c3)n2C)n(C)c1=O` [Compound 20b, 1,3,7-Trimethyl-8-(3-trifluoromethylstyryl)xanthine], for which the A1/A2a ratio in assay [1] (Table I, ratio of Ki values) was determined as 25. For the same compound, the Ki in assay [1] (setting [4]) worked out at 134 ± 44 nM; in assay [2] (Table I, rat A1 receptors), 3330 nM.
The like results for `Cn1c(=O)c2[nH]c(/C=C/c3cccc([N+](=O)[O-])c3)nc2n(C)c1=O` [Compound 21a, 1,3-Dimethyl-8-(3-nitrostyryl)xanthine] were, in that order, 2.4, 438 ± 106 nM and 1060 nM.
The like results for `Cn1c(=O)c2c(nc(/C=C/c3cccc([N+](=O)[O-])c3)n2C)n(C)c1=O` [Compound 21b, 1,3,7-Trimethyl-8-(3-nitrostyryl)xanthine] were, in that order, 11, 195 ± 44 nM and 2140 nM.
Taken in the same sequence, the figures for `Cn1c(=O)c2[nH]c(/C=C/c3cccc(N)c3)nc2n(C)c1=O` [Compound 22a, 1,3-Dimethyl-8-(3-aminostyryl)xanthine] were 1.4, 202 ± 79 nM and 288 ± 60 nM.
Regarding `Cn1c(=O)c2c(nc(/C=C/c3cccc(N)c3)n2C)n(C)c1=O` [Compound 22b, 1,3,7-Trimethyl-8-(3-aminostyryl)xanthine], the A1/A2a ratio in assay [1] (Table I, ratio of Ki values) was 30. Further, the Ki in assay [1] (setting [4]) came to 57 ± 3 nM; in assay [2] (Table I, rat A1 receptors), 1690 nM. Further, the A2-selectivity in assay [1] is 30 fold.
Consider `CC(=O)Nc1cccc(/C=C/c2nc3c(c(=O)n(C)c(=O)n3C)n2C)c1` [Compound 23, 1,3,7-Trimethyl-8-(3-acetylaminostyryl)xanthine], for which the A1/A2a ratio in assay [1] (Table I, ratio of Ki values) was found to be 240. In addition, the Ki was 39 ± 21 nM in assay [1] (setting [4]); 39 nM and ≤ 50 nM in assay [1] (setting [5]); 9470 nM in assay [2] (Table I, rat A1 receptors).
For the compound `Cn1c(=O)c2c(nc(/C=C/c3cccc(NC(=O)OC(C)(C)C)c3)n2C)n(C)c1=O` [Compound 25, 1,3,7-Trimethyl-8-(3-tert-butyloxycarbonylaminostyryl)xanthine], the Ki in assay [1] (setting [4]) worked out at 784 ± 100 nM.
Regarding `Cn1c(=O)c2c(nc(/C=C/c3cccc(N(C(=O)OC(C)(C)C)C(=O)OC(C)(C)C)c3)n2C)n(C)c1=O` [Compound 26, 1,3,7-Trimethyl-8-[3-[di-(tert-butyloxycarbonyl)amino]styryl]xanthine], in assay [1] (Table I, ratio of Ki values), the A1/A2a ratio was determined as 15. For the same compound, the Ki came out at 740 ± 77 nM in assay [1] (setting [4]) and 10800 nM in assay [2] (Table I, rat A1 receptors). Also, the “reduction of potency at A2-receptors” value in assay [1] (very bulky 3-position substituents) is recorded as “roughly 20 fold”.
For the compound `Cn1c(=O)c2[nH]c(/C=C/c3cccc(F)c3)nc2n(C)c1=O` [Compound 27a], in assay [1] (Table I, ratio of Ki values), the A1/A2a ratio was found to be 5.3. For the same compound, the Ki came to 516 ± 99 nM in assay [1] (setting [4]) and 2720 nM in assay [2] (Table I, rat A1 receptors).
`Cn1c(=O)c2c(nc(/C=C/c3cccc(F)c3)n2C)n(C)c1=O` [Compound 27b]: the A1/A2a ratio in assay [1] (Table I, ratio of Ki values) turned out to be 190. Moreover, the Ki was determined as 83 ± 18 nM in assay [1] (setting [4]) and 15800 nM in assay [2] (Table I, rat A1 receptors). Besides, the A2-selectivity in assay [1] is no less than 200 fold.
Regarding `Cn1c(=O)c2c(nc(/C=C/c3cccc(Br)c3)n2C)n(C)c1=O` [Compound 28b], the A1/A2a ratio in assay [1] (Table I, ratio of Ki values) amounted to 120. For the same compound, the Ki in assay [1] (setting [4]) is 29.2 ± 3.1 nM; in assay [2] (Table I, rat A1 receptors) it was 3520 nM.
For `Cn1c(=O)c2c(nc(/C=C/c3cccc(I)c3)n2C)n(C)c1=O` [Compound 28c], in assay [1] (Table I, ratio of Ki values), the A1/A2a ratio was 61. Besides, the Ki in assay [1] (setting [4]) came out at 38.6 ± 12.5 nM; in assay [2] (Table I, rat A1 receptors) it was 2370 nM.
Regarding `Cn1c(=O)c2c(nc(/C=C/c3cccc([N+]#N)c3)n2C)n(C)c1=O` [Compound 28d], in assay [1] (Table I, ratio of Ki values), the A1/A2a ratio amounted to 46. Further, the Ki amounted to 64.8 ± 19.6 nM in assay [1] (setting [4]) and 2990 nM in assay [2] (Table I, rat A1 receptors).
Taken in the same sequence, the figures for `COc1ccc(/C=C/c2nc3c([nH]2)c(=O)n(C)c(=O)n3C)cc1` [Compound 29a, 1,3-Dimethyl-8-(4-methoxystyryl)xanthine] were 1.8, 472 ± 132 nM and 858 ± 320 nM.
As to `COc1ccc(/C=C/c2nc3c(c(=O)n(C)c(=O)n3C)n2C)cc1` [Compound 29b, 1,3,7-Trimethyl-8-(4-methoxystyryl)xanthine], the A1/A2a ratio in assay [1] (Table I, ratio of Ki values) stood at 44. Also, the Ki in assay [1] (setting [4]) came to 327 ± 75 nM; in assay [2] (Table I, rat A1 receptors), 14200 nM.
The like results for `CN(C)c1ccc(/C=C/c2nc3c([nH]2)c(=O)n(C)c(=O)n3C)cc1` [Compound 30a, 1,3-Dimethyl-8-(4-dimethylaminostyryl)xanthine] were, in that order, 0.24, 12800 nM and 3030 nM.
Regarding `CN(C)c1ccc(/C=C/c2nc3c(c(=O)n(C)c(=O)n3C)n2C)cc1` [Compound 30b], the A1/A2a ratio in assay [1] (Table I, ratio of Ki values) was greater than 1. The Ki in assay [1] (setting [4]) turned out to be 9270 nM. Further, the “potency or selectivity” value in assay [1] is reported as “displayed A2 -selectivity”. The inhibition at 30 µM in assay [2] (1.5 h, at 3 × 10^-5, vs [3H]PIA, read-out: Percent displacement of specific binding (A1)) came to 5.6%.
Turning to `COc1cccc(/C=C/c2nc3c([nH]2)c(=O)n(C)c(=O)n3C)c1OC` [Compound 31a, 1,3-Dimethyl-8-(2,3-dimethoxystyryl)xanthine], the A1/A2a ratio in assay [1] (Table I, ratio of Ki values) turned out to be 2.7. The Ki in assay [1] (setting [4]) came to 600 ± 204 nM; in assay [2] (Table I, rat A1 receptors), 1600 nM.
Turning to `COc1ccc(/C=C/c2nc3c([nH]2)c(=O)n(C)c(=O)n3C)cc1OC` [Compound 32a, 1,3-Dimethyl-8-(3,4-dimethoxystyryl)xanthine], in assay [1], the A1/A2a ratio is given as 48. In addition, the Ki in assay [1] (setting [4]) amounted to 1100 nM; in assay [2] (Table I, rat A1 receptors), 5340 nM.
For the compound `COc1cc(/C=C/c2nc3c(c(=O)n(C)c(=O)n3C)n2CCc2ccccc2)cc(OC)c1OC` [Compound 44f], the inhibition at 10 µM in assay [2] (1.5 h, at 10^-5, vs [3H]PIA, read-out: Percent displacement of specific binding (A1)) was found to be 32 ± 9%.
With `CCn1c(=O)c2c(nc(/C=C/c3cc(OC)c(OC)c(OC)c3)n2C)n(CC)c1=O` [Compound 45b], the Ki in assay [2] (Table I, rat A1 receptors) turned out to be 2790 nM.
Same read-out and setting: as for `CCCn1c(=O)c2c(nc(/C=C/c3cccc(Cl)c3)n2C)n(CCC)c1=O` [Compound 51b], the figure is 874 ± 222 nM.
For `COc1cccc2cc(-c3nc4c(c(=O)n(C)c(=O)n4C)n3C)oc12` [Compound 58b], in assay [1] (Table IV, vs [3H]CGS21680 (5 nM), read-out: Ki (A2)), the Ki was determined as 4740 nM.
